This is an account of results in US11267802B2 (BEBETTER MED INC., priority 2015, dated 2022).

One series has as its system LOVO. The experiment in a line: Inhibition assay on tumor cell proliferation (CellTiter-Glo), LOVO. It is filed as cell-based, Human. The settings on record: Homo sapiens; LOVO (wild-type EGFR), 72 hours, 10% bovine serum. The essentials: (§1)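 Viability from ATP content by CellTiter-Glo luminescence; inhibition normalised to DMSO (max) and medium-only (min) wells, IC50 by sigmoidal dose-response fitting. LOVO and H358 carry wild-type EGFR; HCC827 has exon 19 deletion.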
On the technique in general: Cellular ATP, detected with luciferase, serves as a proxy for viable cell number.

In another series the test system is H1975. The experiment in a line: Inhibition assay on tumor cell proliferation (CellTiter-Glo), H1975. In kind it is cell-based, Human. The conditions noted are these: Homo sapiens, NCI-H1975; H1975 (L858R and T790M EGFR double mutation), 72 hours, 10% bovine serum.
A further series has as its system H358. Nature of the series: Inhibition assay on tumor cell proliferation (CellTiter-Glo), H358. The settings on record: Homo sapiens, NCI-H358; H358 (wild-type EGFR), 72 hours, 10% bovine serum. In kind it is cell-based, Human. The essentials: as §1
The next series has as its system HCC827. The experiment in a line: Inhibition assay on tumor cell proliferation (CellTiter-Glo), HCC827. The settings on record: Homo sapiens; HCC827 (ex19del), 72 hours, 10% bovine serum. In kind it is cell-based. The protocol: By using a CellTiter-Glo luminescence cell viability test kit (Promega, # G7572), the content of adenosine triphosphate (ATP) was determined to assess the cell viability.
Human colon cancer cell line LOVO and human non-small-cell lung cancer H358 express wild-type EGFR. Human non-small-cell lung cancer cell line HCC827 carries deletion mutation in exon 19 (ex19del). Those cell lines are purchased from Shanghai Fudan IBS Cell Resource Center and American Tissue Culture Collection (ATCC).
The assay procedure is as follows. The cells in a cell culture plate were digested with a pancreatic enzyme, re-suspended in a DPBS culture medium, and had the cell density counted by Scepter automated cytometer (Millipore # PHCC00000). The cells were diluted to a solution of 44,000 cells per ml. The cell solution with adjusted density was added to the cell assay plate at 90 microliters per well. The plate was placed in an incubator with 5% CO2 at 37° C. for 24 hours of incubation, and then added with different concentrations of subject compounds. The cells were incubated for 72 hours with the compounds in presence of 10% bovine serum. The content of ATP was determined by a CellTiter-Glo® Luminescent Cell Viability Assay kit (see the manufacturer's instruction for details) to evaluate cell-growth inhibition.
Briefly, 30 μl of CellTiter-Glo® reagent was added to each well, and then shaken for 10 minutes to induce cell lysis. The fluorescent signal was detected and recorded by Fluoroskan Ascent FL (Thermo). The max signal value was obtained from the cells treated by dimethyl sulfoxide for 72 hours. The min signal value was obtained from the medium alone (the number of the cells was 0). Inhibitory rate %=(max signal value−compound signal value)/(max signal value−min signal value)×100. The data was processed by GraphPad Prism V5.0 software (GraphPad Software, San Diego, Calif.). Sigmoidal dose-response curve fitting was performed to calculate the IC50 value.

The target of the next series is T1, EGFR T790M/L858R (Homo sapiens, UniProt P00533, L858R/T790M).
T1 construct: purchased Invitrogen PR8911A
Nature of the series: Mutant EGFR T790M/L858R activity inhibition assay (Caliper mobility shift). In kind it is biochemical. The conditions noted are these: read-out: enzyme activity inhibition (IC50) EGFR T790M/L858R. The essentials: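 Compound added in 10% DMSO at 5-fold final concentration; substrate conversion read by Caliper mobility shift. Inhibition = (max−conversion)/(max−min)×100, with max from DMSO no-compound wells and min from no-enzyme wells; IC50 from fitted concentration–response curve.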

Series [1] relates to H1975 xenograft tumor. The experiment in a line: Potency assay of tumor model, dose-effect relationship, 22 consecutive days. It is filed as in vivo, Balb/C nude mice. The settings on record: for Tumor inhibition T/C value (%) / Weight change (%): po, qd. The protocol:
(§2) Balb/C nude mice were purchased from Beijing Vital River Laboratory Animal Technology Co., Ltd., and housed in SPF animal room. The human non-small-cell lung cancer cell line H1975 in a culture dish was collected by trypsin-EDTA (0.25% trypsin, 1 mM EDTA), and then washed with a serum-free PBS solution. Lastly, the cells were implanted after diluted in a serum-free medium. Only the single cell suspension with a survival rate over 90% (Trypan blue rejection) can be used for injection. 5 million cells suspended in a 0.1 ml serum-free culture were injected into the front right flanking subcutaneous region of each mouse by using a 1 ml syringe and a 25G syringe needle, and the blood vessel was carefully avoided. The tumor size was measured in about one week after implantation. A caliper rule was used to measure the tumor size. The tumor volume was calculated by the following formula: tumor volume=(length×width^2)/2.
Further assay was performed to assess the dose-effect relationship of the inhibition of H1975 transplantation tumor growth by the compounds 51 and 91. […] These compounds were dissolved in 30% sulfobutylated beta-cyclodextrin (SBE-β-CD) and 1N HCl (pH 3-4), respectively. […]

Series [2] can be described thus: Pharmacokinetics in beagles after oral administration. In kind it is in vivo. The conditions noted are these: male, beagle, dog, 5 mg/kg, plasma. The protocol: (§3) Male SD rats weighing 250-300 g, or male beagles weighing 9-10 kg, were fasted overnight before the experiment. The object compounds were dissolved in 30% sulfobutylated beta-cyclodextrin (SBE-β-CD), and orally administrated to the rats at a dose of 20 mg/kg or to the beagles at a dose of 5 mg/kg. Blood samples were taken at 15 minutes, 30 minutes, 1 hour, 2 hours, 3 hours, 4 hours, 6 hours, 8 hours and 24 hours after administration. 0.3 ml of blood was collected at every time point, placed in a centrifuge tube containing K2-EDTA (ethylenediamine tetraacetic acid dipotassium) and centrifuged (2,000 g, 10 minutes, 4° C.) to collect plasma, which was then stored in an ultra cold storage freezer at −80° C. 50 μL of plasma sample was mixed with 5 μL of internal standard (IS), and then extracted with ethyl acetate. After vacuum drying, the residue was re-dissolved in acetonitrile. The sample was filtered and injected into LC-MS/MS for analysis.

Series [3] is described as follows: Pharmacokinetics in rats after oral administration. It is filed as in vivo, SD rats. The protocol: as §3
The subject of series [4] is H1975 xenograft tumor. Nature of the series: Potency assay of tumor model, 16 consecutive days. The conditions noted are these: oral. It is filed as in vivo, Balb/C nude mice. The protocol:
as §2
This experiment studied the inhibition of tumor growth in H1975 xenograft tumor model by the compounds 20, 50, 91, and 118. When the mean volume of H1975 tumor reached about 260 mm^3, the animals were divided into 5 oral administration groups, that is, excipient control group and groups of oral administration of compound 20, compound 50, compound 91, and compound 118, respectively (n=8/group). These compounds were dissolved in 30% sulfobutylated beta-cyclodextrin (SBE-β-CD) and 1N HCl (pH 3-4). […]

The mark [5] stands for this setting: male, SD, rat, 20 mg/kg, plasma.

The structures appear in SMILES notation.

T1 sequence (P00533 25-1210 T790M/L858R): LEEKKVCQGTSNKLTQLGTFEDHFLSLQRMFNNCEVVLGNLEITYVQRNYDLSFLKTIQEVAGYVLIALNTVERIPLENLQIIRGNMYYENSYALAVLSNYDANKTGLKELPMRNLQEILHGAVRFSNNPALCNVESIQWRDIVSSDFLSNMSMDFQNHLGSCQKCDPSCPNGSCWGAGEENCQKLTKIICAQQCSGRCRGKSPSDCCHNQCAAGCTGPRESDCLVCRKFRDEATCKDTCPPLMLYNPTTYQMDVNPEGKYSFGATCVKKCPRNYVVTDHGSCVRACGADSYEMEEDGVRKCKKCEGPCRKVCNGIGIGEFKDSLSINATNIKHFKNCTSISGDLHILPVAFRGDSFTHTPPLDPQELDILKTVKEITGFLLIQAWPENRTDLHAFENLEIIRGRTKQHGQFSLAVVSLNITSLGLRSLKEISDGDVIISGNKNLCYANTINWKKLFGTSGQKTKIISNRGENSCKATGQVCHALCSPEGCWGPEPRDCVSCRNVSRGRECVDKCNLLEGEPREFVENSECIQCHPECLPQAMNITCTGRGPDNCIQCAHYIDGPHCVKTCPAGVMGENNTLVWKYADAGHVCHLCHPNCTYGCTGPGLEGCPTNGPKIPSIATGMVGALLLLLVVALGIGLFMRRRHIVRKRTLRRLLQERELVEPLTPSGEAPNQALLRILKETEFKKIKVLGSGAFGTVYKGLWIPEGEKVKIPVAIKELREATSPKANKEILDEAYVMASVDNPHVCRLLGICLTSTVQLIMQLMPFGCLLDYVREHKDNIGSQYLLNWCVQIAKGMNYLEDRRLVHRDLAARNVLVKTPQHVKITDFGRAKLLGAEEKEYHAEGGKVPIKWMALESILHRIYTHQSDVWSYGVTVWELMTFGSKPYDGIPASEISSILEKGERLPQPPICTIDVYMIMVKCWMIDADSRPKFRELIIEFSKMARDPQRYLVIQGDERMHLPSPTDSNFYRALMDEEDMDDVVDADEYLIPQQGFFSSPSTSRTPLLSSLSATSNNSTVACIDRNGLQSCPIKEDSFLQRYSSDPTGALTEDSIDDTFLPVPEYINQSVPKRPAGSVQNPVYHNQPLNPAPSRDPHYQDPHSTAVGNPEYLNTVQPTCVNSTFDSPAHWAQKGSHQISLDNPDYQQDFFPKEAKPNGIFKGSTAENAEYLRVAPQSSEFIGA

With `C=CC(=O)Nc1cccc(Nc2nc(Nc3ccc(N4CCN(C(C)=O)CC4)cc3OC)ncc2C(F)(F)F)c1` [CO-1686, Rociletinib, reference compound], the IC50 with LOVO is > 1000 nM; in the series with H1975, 10 to 50 nM; with H358 it was 100 to 1000 nM; in the series with HCC827, 100 to 1000 nM.

As a reminder, the melting point is the temperature, or range, at which the solid turns liquid. With `C=CC(=O)Nc1cc(Nc2nccc(-n3ccc4cc(CO)ccc43)n2)c(OC)cc1N(C)CCN(C)C` [Compound 39, N-(2-((2-(dimethylamino)ethyl)(methyl)amino)-5-((4-(5-(hydroxymethyl)-1H-indol-1-yl)pyrimidin-2-yl)amino)-4-methoxyphenyl)acrylamide], the melting point fell in the range of 67 to 68 °C. Besides, in the series with LOVO, the IC50 is > 1000 nM. Besides, the IC50 in the series with H1975 is < 10 nM. In the series on H358, this molecule registered an IC50 of 100 to 1000 nM. In addition, the IC50 with HCC827 was < 10 nM. Further, the IC50 on EGFR T790M/L858R is < 1 nM.

For orientation: AUC(0-inf) means the area under the concentration-time curve extrapolated to infinity. High values mean high exposure, low ones low exposure. For orientation: Cmax means the maximum level reached in the sampled fluid or tissue. As usually defined, the Tmax is the time from dosing to the highest level. A word on the half-life: it is the time in which the quantity being followed falls by half. `C=CC(=O)Nc1cc(Nc2nccc(-n3c(=O)n(C)c4cc(F)ccc43)n2)c(OC)cc1N(C)CCN(C)C` [Compound 50, N-(2-((2-(dimethylamino)ethyl)(methyl)amino)-5-((4-(5-fluoro-3-methyl-2-oxo-2,3-dihydro-1H-benzo[d]imidazol-1-yl)pyrimidin-2-yl)amino)-4-methoxyphenyl)acrylamide] yielded a melting point of 208 to 210 °C. Moreover, in the series on H1975 xenograft tumor [1] (10 mg/kg, 22 consecutive days), the “Tumor inhibition T/C value (%)” value is −65% and the “Weight change (%)” value is listed as 0.0%. Besides, in the series with H1975 xenograft tumor [1] (20 mg/kg, 22 consecutive days), the “Tumor inhibition T/C value (%)” value is −95% and the “Weight change (%)” value was −2.0%. Also, in the series on H1975 xenograft tumor [1] (40 mg/kg, 22 consecutive days), the “Tumor inhibition T/C value (%)” value was −100% and the “Weight change (%)” value is on record as −4.4%. In addition, the “tumor outcome (in words)” value with H1975 xenograft tumor [1] (high dose (40 mg/kg), 22 consecutive days) is given as “the tumor disappeared completely”. Also, the “dose dependence of inhibition of H1975 xenograft tumor growth (in words)” value with H1975 xenograft tumor [1] (oral, 10, 20 and 40 mg/kg) is listed as “dose dependently inhibited”. Besides, in the series on H1975, the IC50 was < 10 nM. Further, in series [2], the AUC(0-inf) is 1470 ng·h/mL, the Cmax was 428 ng/mL, the time to peak (Tmax) was determined as 1 h and the half-life was 1.45 h. Moreover, the AUC(0-t) in series [2] (read-out: AUC0-24) was found to be 1420 ng·h/mL. The IC50 in the series with H358 fell in the range of 100 to 1000 nM. Also, the “absorption / blood exposure after oral administration (in words)” value in series [3] is recorded as “well absorbed, with high blood exposure”. Further, in series [3] (setting [5]), the AUC(0-inf) stood at 598 ng·h/mL, the concentration peaked (Cmax) at 173 ng/mL, the Tmax was 1 h and the half-life is 3.1 h. In addition, the AUC(0-t) in series [3] (male, SD, rat, 20 mg/kg, plasma, read-out: AUC0-24) was 561 ng·h/mL. Besides, the IC50 at EGFR T790M/L858R was < 1 nM. Also, the T/C value in the series with H1975 xenograft tumor [4] (30 mg/kg qd as printed, 16 days after administration) is recorded as −97%. Further, the “inhibition of growth of H1975 xenograft tumor (in words)” value in the series with H1975 xenograft tumor [4] (30 mg/kg qd, 16 days) is listed as “tumor regression”.

Take `C=CC(=O)Nc1cc(Nc2nccc(-c3cn(C)c4ccccc34)n2)c(OC)cc1N(C)CCN(C)C` [AZD9291, Osimertinib, reference compound]: in the series on H1975 xenograft tumor [1] (25 mg/kg, 22 consecutive days), the “Tumor inhibition T/C value (%)” value is −100%. In the series on H1975 xenograft tumor [1] (25 mg/kg, 22 consecutive days), the “Weight change (%)” value is recorded as −7.2%. Moreover, the IC50 is > 1000 nM in the series with LOVO, < 10 nM in the series with H1975, 100 to 1000 nM in the series with H358 and < 10 nM in the series on HCC827.
